In article PMC7340849 (Bioorganic & medicinal chemistry letters, 2020):

Columns and labels:
D1R [1] = molecular target: T1, D1R (Homo sapiens, UniProt P21728); assay: Binding affinity at dopamine D1R, [3H]SCH23390 radioligand; conditions: for selectivity D1R over D5R: from Ki values
D5R = D5R (Homo sapiens, UniProt P21918); assay: Binding affinity at dopamine D5R, [3H]SCH23390 radioligand; conditions: from Ki values
D1R [2] = molecular target: T1, D1R; assay: D1R agonist/antagonist assays measuring cAMP modulation; conditions: agonist mode

T1 sequence (P21728 whole entry): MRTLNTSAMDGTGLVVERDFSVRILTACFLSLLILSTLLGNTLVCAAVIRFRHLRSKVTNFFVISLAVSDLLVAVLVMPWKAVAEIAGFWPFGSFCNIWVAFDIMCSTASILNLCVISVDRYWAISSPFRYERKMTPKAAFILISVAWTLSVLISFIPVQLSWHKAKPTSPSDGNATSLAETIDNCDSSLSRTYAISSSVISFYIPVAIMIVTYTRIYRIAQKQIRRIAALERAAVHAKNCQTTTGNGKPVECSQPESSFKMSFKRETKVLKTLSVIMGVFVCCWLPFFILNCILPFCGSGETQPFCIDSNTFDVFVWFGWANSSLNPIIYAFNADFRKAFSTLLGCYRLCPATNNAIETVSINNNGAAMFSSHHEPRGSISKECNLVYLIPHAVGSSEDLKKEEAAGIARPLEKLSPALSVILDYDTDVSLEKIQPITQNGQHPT
Chain of D5R (P21918 whole entry): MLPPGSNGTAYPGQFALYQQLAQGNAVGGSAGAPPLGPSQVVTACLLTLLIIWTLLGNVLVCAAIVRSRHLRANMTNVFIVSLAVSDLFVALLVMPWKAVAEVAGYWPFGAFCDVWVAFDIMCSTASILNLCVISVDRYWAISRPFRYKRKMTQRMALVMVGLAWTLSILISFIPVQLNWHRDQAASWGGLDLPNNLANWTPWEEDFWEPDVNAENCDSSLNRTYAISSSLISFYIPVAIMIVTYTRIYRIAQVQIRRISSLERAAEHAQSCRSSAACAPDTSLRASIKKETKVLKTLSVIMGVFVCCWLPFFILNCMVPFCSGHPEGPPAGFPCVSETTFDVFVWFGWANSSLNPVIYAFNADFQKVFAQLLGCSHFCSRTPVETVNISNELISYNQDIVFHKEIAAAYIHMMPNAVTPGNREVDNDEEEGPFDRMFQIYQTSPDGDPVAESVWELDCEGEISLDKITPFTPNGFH

selectivity D1R over D5R (D1R [1])	SMILES	further results
up to 3 fold	COc1cc2c(cc1O)C(c1ccccc1)CNCC2 (stereo not drawn) [Compound 6a]	–
up to 3 fold	COc1cc2c(cc1O)C(c1ccccc1Cl)CNCC2 (stereo not drawn) [Compound 6b]	–
–	COc1cc2c(cc1O)C(c1c(Cl)cccc1Cl)CNCC2 (stereo not drawn) [Compound 6c]	selectivity D5R over D1R (D5R): 3 fold
up to 3 fold	COc1cc2c(cc1O)C(c1ccccc1Br)CNCC2 (stereo not drawn) [Compound 6d]	–
–	Oc1cc2c(cc1O)C(c1ccccc1Br)CNCC2 (stereo not drawn) [Compound 7]	increase in D1R affinity versus C7 methoxy analog 6d (D1R [1]; catechol 7 compared with 6d): roughly 3 fold
–	COc1cc2c(cc1O)C(c1ccccc1Cl)CN(C)CC2 (stereo not drawn) [Compound 10a]	agonist activity (D1R [2]): No agonist activity was detected
